Consider three molecules from patent publication US8394355B2, “Use of UTP for the diagnosis of stenoses and other conditions of restricted blood flow” (P2 science Aps, priority 2009, dated 2013).

Structures are written as SMILES.

Test [1] deals with pulmonary and systemic circulation of healthy female pigs. Put plainly: Systemic (central intravenous) nucleotide infusion in pigs, hemodynamic response. Format: in vivo. Particulars: for increase in CO (cardiac output): FIG. 7b; for increase in HR from baseline: FIG. 7c; for decrease in SV (stroke volume): FIG. 7d; for MAP lowered by, from baseline: p<0.05, FIG. 7a; for infusion rate at target MAP: target ~50% reduction in baseline MAP, right atrium infusion. The procedure: In the present study, the hemodynamic response in the pulmonary and systemic circulation was tested, as well as the effect of central intravenous infusions of ATP, ADP, ADO, and UTP on the heart.
Infusion rates were aimed at exerting a pronounced systemic response in the lowering of arterial blood pressure, but avoiding a total circulatory collapse.
Methods: 10 healthy female pigs (Department of Experimental Medicine and Surgery, University of Copenhagen, Denmark) bred as a combination of the Danish Landrace (⅓) and Yorkshire (⅔), with a medium weight of 41±2 kg were investigated.
Mean arterial blood pressure (MAP) was obtained from the catheter in arcus aorta with the transducer (Pressure Monitoring Kit, Baxter, Deerfield, Ill., USA) positioned at the level of the heart. The left femoral artery was subsequently exposed and an ultrasound doppler probe attached for peripheral femoral artery flow measurements (CM-4000, Cardiomed, Norway). MAP, HR and peripheral flow were monitored and data continuously collected using a PowerLab system (Adinstruments, Australia). Cardiac Output (CO) was determined in triplicates by thermodilution, following an injection of 10 ml of cooled saline solution. Blood samples were withdrawn from catheters in aorta and the right atrium at baseline and at steady state when MAP had decreased maximally or by ˜50%. Calculated variables were: stroke volume of the heart (SV=CO/HR), pulmonary vascular resistance (PVR=(MPAP−PCWP)/CO), systemic vascular resistance (SVR=(MAP−MRAP)/CO), leg vascular conductance (LVC=LBF/(MAP−MRAP)), and arterial (aorta) and mixed venous (pulmonary artery) oxygen content (Hb*1.34*O2 saturation). In the calculation of LVC, MRAP was used as an estimate of mean femoral venous pressure (MFVP), as MRAP was found in a series of measurements to equal MFVP, as estimated in 10 supine pigs. As a potential estimate for myocardial oxygen demand the rate pressure product (RPP=MAP*HR) was also calculated.
Drug infusions: Each animal was administered the nucleotides ATP, UTP, ADP (Sigma, St. Louis, Mo., USA) and ADO (Item Development AB, Stocksund, Sweden), through the internal jugular vein in the right atrium, in random order following blinded allocation. The nucleotides and ADO were prepared by dissolving in saline so as to achieve the target concentration of ATP (40±0.5 μmol/min), ADP (43±8 μmol/min), UTP (up to 1,600 μmol/min), and ADO (73±7 μmol/min). The nucleotides were infused in increasing dosages at 2 min intervals aiming at reducing MAP by maximally ˜50%. Thereafter, that specific infusion rate was maintained for ˜3-5 min. After each intervention the animal rested for ˜30 min, allowing resting cardiovascular variables to be reestablished. Thereafter, a new cycle of nucleotide infusion was administered. In the present study we aimed to allow the drugs to reduce MAP by ˜50%, but without inducing a hemodynamic and circulatory collapse, to simulate a pronounced state of systemic vasodilation, as may be observed for instance in a shock condition.

The test system of test [2] is infarct area during acute myocardial infarction. Put plainly: ADP or UTP infusion during myocardial infarction in pigs (unpublished). Format: in vivo. Particulars: infused during acute myocardial infarction, unpublished results. The text has this:
This is clearly in contrast to previous findings, but is more clinically relevant as most cardiac patients are older. […] This conclusion is also supported by another study by the present inventor in pigs where ADP or UTP was infused during myocardial infarction. […] Therefore, the previous assumptions in patent application WO 2007/065437 relating to the regulation of purinergic receptor activity to modulate vascular tone, particularly for treating hemodynamic conditions by overriding vasoconstriction activity, which could potentially have clinical applications for treatment with UTP agonists or antagonists, is incorrect.

The subject of test [3] is leg blood flow. Particulars: cited from earlier work; for relative vasoactive potency (rank order): only for blood flows around 3.5 Lmin^−1.

`Nc1ncnc2c1ncn2[C@@H]1O[C@H](COP(=O)(O)OP(=O)(O)O)[C@@H](O)[C@H]1O` [ADP]: in test [1], the “increase in CO (cardiac output)” value is “not alter CO”; the “increase in HR from baseline” value came to 26.6±4.6%; the “decrease in SV (stroke volume)” value was determined as 21.1±5.6%; the “MAP lowered by, from baseline” value is on record as 48.4±1.2%. Moreover, the “infusion rate at target MAP” value in test [1] turned out to be 43.2 ± 7.7 µmol/min. The “PVR reached during titration” value in test [1] (dose dependent increase) is recorded as 7.3±1.2 Wood Unit. Further, in test [1] (p<0.05), the “decrease in LBF (leg blood flow) from baseline” value turned out to be 34.9±10.2%, the “decrease in SVR (systemic vascular resistance) from baseline” value is given as 49.5±2.0% and the “increase in PVR” value came to 156.7±38.3%. The “effect on infarct area” value in test [2] is “diminished it”. The “relative vasoactive potency (rank order)” value in test [3] is recorded as 2.7.
For the molecule `Nc1ncnc2c1ncn2[C@@H]1O[C@H](COP(=O)(O)O)[C@@H](O)[C@H]1O` [AMP], the “relative vasoactive potency (rank order)” value in test [3] is 1.7.
With `Nc1ncnc2c1ncn2[C@@H]1O[C@H](COP(=O)(O)OP(=O)(O)OP(=O)(O)O)[C@@H](O)[C@H]1O` [ATP], in test [1], the “increase in CO (cardiac output)” value was 35.1±6.9%; the “increase in HR from baseline” value was 23.0±5.7%; the “decrease in SV (stroke volume)” value is listed as “did not significantly change SV”; the “MAP lowered by, from baseline” value is listed as 47.4±1.7%. Besides, the “infusion rate at target MAP” value in test [1] turned out to be 40.2 ± 0.5 µmol/min. Further, in test [1] (p<0.05), the “decrease in LBF (leg blood flow) from baseline” value came to 22.7±4.2%, the “decrease in SVR (systemic vascular resistance) from baseline” value was found to be 61.6±2.1% and the “increase in LVC (leg vascular conductance) from baseline” value amounted to 44.7±8.7%. Further, the “decrease in PVR (pulmonary vascular resistance) from baseline” value in test [1] (pig, in vivo) worked out at 37.8±4.9%. The “blood flow increase, % of maximum in the leg during hard exercise” value in test [3] (local infusion) is 85%. The “relative vasoactive potency (rank order)” value in test [3] is 100.
